Target: T1, Myriococcum thermophilum cellobiose dehydrogenase (CDH, SEQ ID NO: 1) variant N721D (Thermothelomyces myriococcoides, UniProt A9XK88, N721D)
T1 sequence (A9XK88 22-828 N721D): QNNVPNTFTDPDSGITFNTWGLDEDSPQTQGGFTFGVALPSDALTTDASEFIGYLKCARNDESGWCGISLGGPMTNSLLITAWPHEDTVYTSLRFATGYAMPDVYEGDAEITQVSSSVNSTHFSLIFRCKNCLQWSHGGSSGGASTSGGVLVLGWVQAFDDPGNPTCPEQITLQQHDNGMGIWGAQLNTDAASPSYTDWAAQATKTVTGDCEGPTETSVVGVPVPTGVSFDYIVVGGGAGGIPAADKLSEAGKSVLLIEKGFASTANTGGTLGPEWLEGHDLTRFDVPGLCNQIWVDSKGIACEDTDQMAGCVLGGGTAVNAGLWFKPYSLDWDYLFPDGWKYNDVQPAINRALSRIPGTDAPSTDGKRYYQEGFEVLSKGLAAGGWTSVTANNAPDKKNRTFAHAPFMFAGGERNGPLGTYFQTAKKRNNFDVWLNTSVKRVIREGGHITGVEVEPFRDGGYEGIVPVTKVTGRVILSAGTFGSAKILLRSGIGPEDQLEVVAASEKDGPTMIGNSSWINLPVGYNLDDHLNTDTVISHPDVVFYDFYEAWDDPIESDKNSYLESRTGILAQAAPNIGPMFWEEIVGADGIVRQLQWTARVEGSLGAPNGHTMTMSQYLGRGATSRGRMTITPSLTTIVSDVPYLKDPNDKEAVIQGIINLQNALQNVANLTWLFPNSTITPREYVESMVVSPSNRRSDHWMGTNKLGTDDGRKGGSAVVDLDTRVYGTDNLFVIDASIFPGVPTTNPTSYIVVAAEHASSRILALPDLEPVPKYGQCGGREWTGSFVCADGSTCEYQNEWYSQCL
Assay: Steady-state kinetics, DCIP assay: M. thermophilum CDH N721D
Assay type: biochemical
Details: apparent, pH 4.5, 30° C.
Method: Enzyme activity was assayed at 30° C. using either the DCIP (Karapetyan et al., 2005 Journal of Biotechnology 121: 34-48) or cytochrome c (Canevascini et al., 1991, European Journal of Biochemistry 198: 43-52) as electron acceptor. […] Stock solutions of carbohydrates used for kinetic measurements were prepared in the respective buffer and allowed to stand overnight for mutarotation, while stock solutions of electron acceptors were prepared in water and immediately used. The reaction stoichiometry is 1 for the two-electron acceptor DCIP (1 mole of DCIP reduced per mole of carbohydrate oxidized), but 2 for the one-electron acceptor cytochrome c. Kinetic constants were calculated by fitting the observed data to the Henri-Michaelis-Menten equation or to the adapted model for substrate inhibition using nonlinear least-squares regression and the program SigmaPlot (Systat Software, San Jose, Calif., USA). […]
Recombinant wild-type CDH as well as variants were produced in 1 L baffled flasks. […] Increase in activity was monitored using the DCIP and the cytochrome c enzyme assays. […]
The sample was loaded on a 20 mL PHE Sepharose FF column (HR26/20) equilibrated with 50 mM Na-acetate buffer pH 5.5 containing 20% ammonium sulfate. […] Fractions were tested for CDH activity and pooled according to the highest Reinheitszahl (RZ, calculated from the absorbance ratio 420 nm/280 nm). […]

OC[C@H]1OC(O)[C@H](O)[C@@H](O)[C@@H]1O (some centres unmarked) [Glucose, glucose]
kcat: 1.9 s⁻¹ | kcat/KM: 5.9 M⁻¹ s⁻¹
